Results on 30 molecules are retold here after article PMC6150381, “Design, Synthesis, and Biological Evaluation of N,N-Disubstituted-4-arylthiazole-2-methylamine Derivatives as Cholesteryl Ester Transfer Inhibitors” (Molecules : A Journal of Synthetic Chemistry and Natural …, 2017).

Each structure is given as a SMILES string.

The target in data set [1] is T1, recombinant CETP (Homo sapiens, UniProt P11597).
T1 construct: purchased Roar, New York, NY, USA RB-RPAK
T1 sequence (P11597 18-493): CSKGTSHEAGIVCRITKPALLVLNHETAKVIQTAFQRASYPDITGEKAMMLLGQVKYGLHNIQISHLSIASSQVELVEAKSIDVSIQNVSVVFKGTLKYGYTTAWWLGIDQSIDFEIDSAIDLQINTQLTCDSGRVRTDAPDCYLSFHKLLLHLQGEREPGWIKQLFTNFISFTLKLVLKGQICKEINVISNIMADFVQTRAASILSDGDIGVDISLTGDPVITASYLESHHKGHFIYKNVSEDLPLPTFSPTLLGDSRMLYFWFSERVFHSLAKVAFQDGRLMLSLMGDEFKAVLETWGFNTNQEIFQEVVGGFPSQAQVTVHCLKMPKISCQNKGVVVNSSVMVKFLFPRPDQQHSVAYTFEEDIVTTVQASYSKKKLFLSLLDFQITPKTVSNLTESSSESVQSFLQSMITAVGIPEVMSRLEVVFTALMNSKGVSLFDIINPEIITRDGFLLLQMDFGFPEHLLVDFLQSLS
In words: In vitro CETP inhibitory assay (BODIPY-CE fluorescence assay, CETP RP Activity Assay Kit). Format: biochemical. The note with it: for IC50: CETP inhibition, eight-point titration, each concentration tested three times. As for the experimental part: The IC50 was determined from a curve fit of the data with each concentration tested three times.

For `Fc1ccc(CN(Cc2ncc(-c3ccccc3)o2)c2cccc(Oc3ccccc3)c2)cc1` [Compound 17a, N-(4-Fluorobenzyl)-3-phenoxy-N-((5-phenyloxazol-2-yl)methyl)aniline], the melting point fell in the range of 81 to 82.4 °C. The IC50 in data set [1] was 25.7 ± 0.41 µM.

Regarding `Fc1ccc(CN(Cc2ncc(-c3ccccc3)s2)c2cccc(Oc3ccccc3)c2)cc1` [Compound 17b, N-(4-Fluorobenzyl)-3-phenoxy-N-((5-phenylthiazol-2-yl)methyl)aniline], the melting point was in the range of 90.5 to 92.5 °C. In data set [1], the concentration for half-maximal inhibition (IC50) stood at 10.6 ± 0.32 µM.

In the case of `Cc1cc(CN(Cc2ccc(F)cc2)c2cccc(Oc3ccccc3)c2)nn1-c1ccccc1` [Compound 17c, N-(4-Fluorobenzyl)-N-((5-methyl-1-phenyl-1H-pyrazol-3-yl)methyl)-3-phenoxyaniline], the IC50 in data set [1] turned out to be 17.1 ± 0.44 µM.

For the molecule `Fc1ccc(CN(Cc2nc(-c3ccccc3)cs2)c2cccc(Oc3ccccc3)c2)cc1` [Compound 17d, N-(4-Fluorobenzyl)-3-phenoxy-N-((4-phenylthiazol-2-yl)methyl)aniline], the IC50 in data set [1] came out at 9.03 ± 0.21 µM.

Turning to `Fc1ccc(CN(Cc2nnc(-c3ccccc3)o2)c2cccc(Oc3ccccc3)c2)cc1` [Compound 17e, N-(4-Fluorobenzyl)-3-phenoxy-N-((5-phenyl-1,3,4-oxadiazol-2-yl)methyl)aniline], the melting point lay within 97.3 to 98.2 °C. The IC50 in data set [1] came to 26.9 ± 0.35 µM.

Turning to `Fc1ccc(CN(Cc2nc3ccccc3[nH]2)c2cccc(Oc3ccccc3)c2)cc1` [Compound 17f, N-((1H-Benzo[d]imidazol-2-yl)methyl)-N-(4-fluorobenzyl)-3-phenoxyaniline], the concentration for half-maximal inhibition (IC50) in data set [1] is 13.7 ± 0.63 µM.

On to `Fc1ccc(CN(Cc2nc3ccccc3o2)c2cccc(Oc3ccccc3)c2)cc1` [Compound 17g, N-(Benzo[d]oxazol-2-ylmethyl)-N-(4-fluorobenzyl)-3-phenoxyaniline], for which the IC50 in data set [1] came out at 15.2 ± 0.52 µM.

For the molecule `COc1cccc(N(Cc2ccc(F)cc2)Cc2nc(-c3ccccc3)cs2)c1` [Compound 21, N-(4-Fluorobenzyl)-3-methoxy-N-((4-phenylthiazol-2-yl)methyl)aniline], the IC50 in data set [1] is 13.96 ± 0.11 µM.

For `COc1ccc(N(Cc2ccc(F)cc2)Cc2nc(-c3ccccc3)cs2)cc1OC` [Compound 22, N-(4-Fluorobenzyl)-3,4-dimethoxy-N-((4-phenylthiazol-2-yl)methyl)aniline], the IC50 in data set [1] amounted to 3.58 ± 0.03 µM.

Turning to `O=[N+]([O-])c1ccc(-c2csc(CN(Cc3ccc(F)cc3)c3cccc(OC(F)(F)F)c3)n2)cc1` [Compound 23, N-(4-Fluorobenzyl)-N-((4-(4-nitrophenyl)thiazol-2-yl)methyl)-3-(trifluoromethoxy)aniline], in data set [1], the IC50 was 31.69 ± 0.25 µM.

As for `O=[N+]([O-])c1ccc(-c2csc(CN(Cc3ccc(F)cc3)c3cccc(C(F)(F)F)c3)n2)cc1` [Compound 24, N-(4-Fluorobenzyl)-N-((4-(4-nitrophenyl)thiazol-2-yl)methyl)-3-(trifluoromethyl)aniline], the melting point fell in the range of 107 to 108.4 °C. Also, the IC50 in data set [1] is 13.8 ± 0.14 µM.

Turning to `O=[N+]([O-])c1ccc(-c2csc(CN(Cc3ccc(F)cc3)c3ccc(-c4ccccc4)cc3)n2)cc1` [Compound 25, N-(4-Fluorobenzyl)-N-((4-(4-nitrophenyl)thiazol-2-yl)methyl)-[1,1′-biphenyl]-4-amine], the melting point fell in the range of 164.5 to 166.2 °C. Besides, the IC50 in data set [1] was found to be 9.55 ± 0.08 µM.

`O=[N+]([O-])c1ccc(-c2csc(CN(Cc3ccc(F)cc3)c3cccc(-c4ccccc4)c3)n2)cc1` [Compound 26, N-(4-Fluorobenzyl)-N-((4-(4-nitrophenyl)thiazol-2-yl)methyl)-[1,1′-biphenyl]-3-amine] came in with a melting point of 149.5 to 150.8 °C. Moreover, the 50% inhibitory concentration (IC50) in data set [1] stood at 8.98 ± 0.05 µM.

Turning to `O=[N+]([O-])c1ccc(-c2csc(CN(Cc3ccc(F)cc3)c3ccccc3-c3ccccc3)n2)cc1` [Compound 27, N-(4-Fluorobenzyl)-N-((4-(4-nitrophenyl)thiazol-2-yl)methyl)-[1,1′-biphenyl]-2-amine], in data set [1], the IC50 was found to be 1.02 ± 0.01 µM.

The molecule `O=[N+]([O-])c1ccc(-c2csc(CN(Cc3ccc(F)cc3)c3cccc(-c4cccs4)c3)n2)cc1` [Compound 28, N-(4-Fluorobenzyl)-N-((4-(4-nitrophenyl)thiazol-2-yl)methyl)-3-(thiophen-2-yl)aniline] displayed a melting point of 143.9 to 148.8 °C. Moreover, in data set [1], the 50% inhibitory concentration (IC50) was found to be 7.77 ± 0.13 µM.

`Cn1nccc1-c1cccc(N(Cc2ccc(F)cc2)Cc2nc(-c3ccc([N+](=O)[O-])cc3)cs2)c1` [Compound 29, N-(4-Fluorobenzyl)-3-(1-methyl-1H-pyrazol-5-yl)-N-((4-(4-nitrophenyl)thiazol-2-yl)methyl)aniline]: the IC50 in data set [1] was found to be 24.56 ± 0.22 µM.

As for `COc1ccc(N(Cc2ccc(F)cc2)Cc2nc(-c3ccc(F)cc3)cs2)cc1OC` [Compound 31, N-(4-Fluorobenzyl)-N-((4-(4-fluorophenyl)thiazol-2-yl)methyl)-3,4-dimethoxyaniline], in data set [1], the IC50 was 2.46 ± 0.06 µM.

Molecule `COc1ccc(N(Cc2ccc(F)cc2)Cc2nc(-c3ccc(C#N)cc3)cs2)cc1OC` [Compound 33, 4-(2-(((3,4-Dimethoxyphenyl)(4-fluorobenzyl)amino)methyl)thiazol-4-yl)benzonitrile] returned a melting point of 105.4 to 106.6 °C. For the same molecule, the IC50 in data set [1] stood at 1.5 ± 0.03 µM.

Molecule `COc1ccc(N(Cc2ccc(F)cc2)Cc2nc(-c3cccc([N+](=O)[O-])c3)cs2)cc1OC` [Compound 34, N-(4-Fluorobenzyl)-3,4-dimethoxy-N-((4-(3-nitrophenyl)thiazol-2-yl)methyl)aniline] displayed a melting point of 120.5 to 121.6 °C. The IC50 in data set [1] was found to be 1.38 ± 0.07 µM.

On to `COc1ccc(N(Cc2ccc(F)cc2)Cc2nc(-c3ccccc3[N+](=O)[O-])cs2)cc1OC` [Compound 35, N-(4-Fluorobenzyl)-3,4-dimethoxy-N-((4-(2-nitrophenyl)thiazol-2-yl)methyl)aniline], for which the IC50 in data set [1] came out at 6.36 ± 0.12 µM.

With `COc1ccc(N(Cc2ccc(F)cc2)Cc2nc(-c3ccc(Br)cc3)cs2)cc1OC` [Compound 36, N-((4-(4-Bromophenyl)thiazol-2-yl)methyl)-N-(4-fluorobenzyl)-3,4-dimethoxyaniline], the IC50 in data set [1] was 8.96 ± 0.15 µM.

`COc1ccc(N(Cc2ccc(F)cc2)Cc2nc(-c3ccc(-c4cnn(C)c4)cc3)cs2)cc1OC` [Compound 37, N-(4-Fluorobenzyl)-3,4-dimethoxy-N-((4-(4-(1-methyl-1H-pyrazol-4-yl)phenyl)thiazol-2-yl)methyl)aniline] displayed a melting point of 126.1 to 130.3 °C. In addition, the IC50 in data set [1] is 4.02 ± 0.05 µM.

Molecule `COc1ccc(N(Cc2ccc(F)cc2)Cc2nc(-c3ccc(-c4c(C)noc4C)cc3)cs2)cc1OC` [Compound 38, N-((4-(4-(3,5-Dimethylisoxazol-4-yl)phenyl)thiazol-2-yl)methyl)-N-(4-fluorobenzyl)-3,4-dimethoxyaniline] yielded a melting point of 69 to 69.8 °C. Further, in data set [1], the IC50 was determined as 7.57 ± 0.1 µM.

The molecule `COc1ccc(N(Cc2ccc(F)cc2)Cc2nc(-c3ccc(-c4ccnn4C)cc3)cs2)cc1OC` [Compound 39, N-(4-Fluorobenzyl)-3,4-dimethoxy-N-((4-(4-(1-methyl-1H-pyrazol-5-yl)phenyl)thiazol-2-yl)methyl)aniline] yielded a melting point of 102.4 to 103.3 °C. Further, the IC50 in data set [1] was determined as 6.38 ± 0.09 µM.

With `COc1ccc(N(Cc2ccc(F)cc2)Cc2nc(-c3ccc(-c4cccs4)cc3)cs2)cc1OC` [Compound 40, N-(4-Fluorobenzyl)-3,4-dimethoxy-N-((4-(4-(thiophen-2-yl)phenyl)thiazol-2-yl)methyl)aniline], the melting point fell in the range of 115.8 to 119 °C. Besides, in data set [1], the IC50 worked out at 6.03 ± 0.04 µM.

In the case of `COc1ccc(N(Cc2ccc(F)cc2)Cc2nc(-c3ccc4ccccc4c3)cs2)cc1OC` [Compound 41, N-(4-Fluorobenzyl)-3,4-dimethoxy-N-((4-(naphthalen-2-yl)thiazol-2-yl)methyl)aniline], the IC50 in data set [1] came out at 3.51 ± 0.06 µM.

Consider `COc1ccc(N(Cc2ccc(F)cc2)Cc2nc(-c3ccc(C)cc3)cs2)cc1OC` [Compound 42, N-(4-Fluorobenzyl)-3,4-dimethoxy-N-((4-(p-tolyl)thiazol-2-yl)methyl)aniline], for which the melting point lay within 105.3 to 107 °C. The IC50 in data set [1] is 14 ± 0.21 µM.

For the molecule `COc1ccc(-c2csc(CN(Cc3ccc(F)cc3)c3ccc(OC)c(OC)c3)n2)cc1` [Compound 43, N-(4-Fluorobenzyl)-3,4-dimethoxy-N-((4-(4-methoxyphenyl)thiazol-2-yl)methyl)aniline], the melting point was in the range of 76.3 to 79 °C. Further, in data set [1], the IC50 is 11 ± 0.31 µM.

`COc1ccc(N(Cc2ccc(F)cc2)Cc2nc(-c3ccc(N)cc3)cs2)cc1OC` [Compound 44, N-((4-(4-Aminophenyl)thiazol-2-yl)methyl)-N-(4-fluorobenzyl)-3,4-dimethoxyaniline] registered a melting point of 144.7 to 146.2 °C. The IC50 in data set [1] came out at 16.7 ± 0.23 µM.

Regarding `CCOC(=O)CCCOc1ccc(-c2csc(CN(Cc3ccc(F)cc3)c3ccc(OC)c(OC)c3)n2)cc1` [Compound 48, Ethyl-4-(4-(2-(((3,4-dimethoxyphenyl)(4-fluorobenzyl)amino)methyl)thiazol-4-yl)phenoxy)butanoate], the IC50 in data set [1] worked out at 8.4 ± 0.04 µM. In data set [1] (compared with the 4-nitro compound (30)), the “decrease of activity on replacing the nitro group at the 4-position of ring B” value is recorded as roughly 10 fold.
